Reference: the NIST ThermoML archive (doi:10.1021/acs.jced.9b00147)

Assay: xn = mol fraction of the nth substance listed
Conditions: 101.3 kPa, Liquid; for speed of sound: Single path-length method; for mass density: Vibrating tube method

CC(=O)[O-].[NH3+]CCO [2-hydroxyethylammonium acetate] + CC(C)O
Conditions | mass density, 293.15 K [kg/m3] | mass density, 303.15 K [kg/m3] | mass density, 313.15 K [kg/m3] | mass density, 323.15 K [kg/m3] | speed of sound, 293.15 K [m/s] | speed of sound, 303.15 K [m/s] | speed of sound, 313.15 K [m/s] | speed of sound, 323.15 K [m/s]
x1 = 0.102 | 840.8 | 832.7 | 824.4 | 815.7 | 1218.6 | 1184.9 | 1151 | 1116.9
x1 = 0.2 | 888.4 | 880.8 | 872.9 | 864.8 | 1275.2 | 1242.9 | 1210.5 | 1177.8
x1 = 0.299 | 930.8 | 923.5 | 916 | 908.3 | 1334 | 1302.6 | 1271.5 | 1240.1
x1 = 0.397 | 970.4 | 963.3 | 956.2 | 948.5 | 1397.5 | 1366.2 | 1335.9 | 1305.6
x1 = 0.493 | 1007 | 999.7 | 992.8 | 985.5 | 1465.1 | 1435.1 | 1405.8 | 1376.6
x1 = 0.6 | 1042 | 1037 | 1030 | 1023 | 1549.8 | 1516.7 | 1487.9 | 1460.2
x1 = 0.692 | 1072 | 1066 | 1060 | 1052 | 1620.1 | 1588.6 | 1559.5 | 1532.3
x1 = 0.798 | 1103 | 1097 | 1091 | 1085 | 1701.8 | 1666.8 | 1638.2 | 1612
x1 = 0.894 | 1129 | 1124 | 1118 | 1112 | 1779 | 1742.8 | 1713.8 | 1687.8
x1 = 1 | 1150 | 1144 | 1139 | 1132 | 1812.9 | 1781.2 | 1754.7 | 1730.9

CC(=O)[O-].[NH3+]CCO [2-hydroxyethylammonium acetate] + CCCO
Conditions | mass density, 293.15 K [kg/m3] | mass density, 303.15 K [kg/m3] | mass density, 313.15 K [kg/m3] | mass density, 323.15 K [kg/m3] | speed of sound, 293.15 K [m/s] | speed of sound, 303.15 K [m/s] | speed of sound, 313.15 K [m/s] | speed of sound, 323.15 K [m/s]
x1 = 0.101 | 855.6 | 847.8 | 839.9 | 831.9 | 1274.5 | 1241.6 | 1208.9 | 1176.3
x1 = 0.199 | 900 | 892.5 | 884.8 | 877.1 | 1323.5 | 1291.7 | 1260.2 | 1228.7
x1 = 0.298 | 941.7 | 934.5 | 927.2 | 919.6 | 1377.3 | 1346.4 | 1316 | 1285.6
x1 = 0.401 | 981.1 | 974.1 | 967.3 | 960.3 | 1437.7 | 1407.8 | 1378.3 | 1348.9
x1 = 0.502 | 1016 | 1010 | 1003 | 996.3 | 1502 | 1472.9 | 1444.4 | 1416.3
x1 = 0.592 | 1046 | 1040 | 1033 | 1027 | 1561.1 | 1532.2 | 1504.3 | 1477
x1 = 0.681 | 1073 | 1067 | 1061 | 1055 | 1624.3 | 1595.1 | 1567.7 | 1541.3
x1 = 0.795 | 1104 | 1098 | 1092 | 1086 | 1711.5 | 1678.6 | 1650.8 | 1624
x1 = 0.89 | 1130 | 1124 | 1118 | 1112 | 1777.8 | 1743.4 | 1715.9 | 1690.2
x1 = 1 | 1150 | 1144 | 1139 | 1133 | 1812.9 | 1781.2 | 1754.7 | 1730.9

CC(=O)[O-].OCC[NH2+]CCO [2,2'-azanediylbis(ethanol) acetate] + CC(C)O
Conditions | mass density, 293.15 K [kg/m3] | mass density, 303.15 K [kg/m3] | mass density, 313.15 K [kg/m3] | mass density, 323.15 K [kg/m3] | speed of sound, 293.15 K [m/s] | speed of sound, 303.15 K [m/s] | speed of sound, 313.15 K [m/s] | speed of sound, 323.15 K [m/s]
x1 = 0.102 | 857.7 | 849.5 | 841.1 | 832.5 | 1233.4 | 1200.3 | 1167.1 | 1133.6
x1 = 0.2 | 915.4 | 907.6 | 899.4 | 891.4 | 1301.5 | 1269.6 | 1237.8 | 1205.8
x1 = 0.299 | 965.3 | 957.7 | 949.8 | 942.3 | 1372.4 | 1341.2 | 1310.1 | 1279.1
x1 = 0.398 | 1009 | 1001 | 993.2 | 986.6 | 1448.2 | 1416.7 | 1386.3 | 1355.2
x1 = 0.502 | 1048 | 1041 | 1034 | 1025 | 1530.5 | 1498.3 | 1468.4 | 1438.7
x1 = 0.59 | 1076 | 1069 | 1061 | 1056 | 1596.5 | 1561.8 | 1530.4 | 1498.8
x1 = 0.696 | 1109 | 1102 | 1095 | 1089 | 1675.3 | 1638.8 | 1607 | 1576.7
x1 = 0.799 | 1137 | 1131 | 1124 | 1118 | 1756.3 | 1717.6 | 1684.7 | 1653.8
x1 = 0.9 | 1162 | 1155 | 1149 | 1142 | 1828.4 | 1782.1 | 1746.8 | 1714.4
x1 = 1 | 1180 | 1173 | 1167 | 1160 | 1884.7 | 1828.2 | 1788.6 | 1756

CC(=O)[O-].OCC[NH2+]CCO [2,2'-azanediylbis(ethanol) acetate] + CCCO
Conditions | mass density, 293.15 K [kg/m3] | mass density, 303.15 K [kg/m3] | mass density, 313.15 K [kg/m3] | mass density, 323.15 K [kg/m3] | speed of sound, 293.15 K [m/s] | speed of sound, 303.15 K [m/s] | speed of sound, 313.15 K [m/s] | speed of sound, 323.15 K [m/s]
x1 = 0.096 | 869.5 | 861.6 | 853.5 | 845.4 | 1286.3 | 1253.5 | 1221.2 | 1188.8
x1 = 0.199 | 929 | 921.2 | 913.4 | 905.7 | 1352.7 | 1321 | 1289.8 | 1258.8
x1 = 0.295 | 975 | 967.5 | 959.9 | 952 | 1415.2 | 1384.2 | 1353.6 | 1323.1
x1 = 0.4 | 1018 | 1012 | 1004 | 996.6 | 1488.2 | 1457.2 | 1427.3 | 1397.4
x1 = 0.501 | 1054 | 1047 | 1040 | 1033 | 1556.5 | 1524.7 | 1494.6 | 1465.4
x1 = 0.599 | 1085 | 1078 | 1072 | 1065 | 1626.4 | 1590.7 | 1559.2 | 1529.2
x1 = 0.697 | 1113 | 1106 | 1099 | 1093 | 1701.1 | 1657.4 | 1623.2 | 1592.3
x1 = 0.801 | 1137 | 1131 | 1124 | 1118 | 1756.5 | 1720.1 | 1688.9 | 1659.2
x1 = 0.901 | 1160 | 1153 | 1146 | 1140 | 1817.8 | 1772.9 | 1738.1 | 1707.4
x1 = 1 | 1180 | 1173 | 1167 | 1160 | 1884.7 | 1828.2 | 1788.6 | 1756
